Data from publication PMC4148444, “P. aeruginosa SGNH Hydrolase-Like Proteins AlgJ and AlgX Have Similar Topology but Separate and Distinct Roles in Alginate Acetylation” (PLoS Pathogens, 2014).

Columns and labels:
PaAlgX27–474 = biological target: T1, PaAlgX27–474 (Pseudomonas aeruginosa, UniProt Q51372); assay: direct ESI-MS binding assay; details: 50 mM ammonium acetate, pH 7, 298 K; corrected for nonspecific binding; site (active site or CBM) not resolved; read-out: Apparent K a (M^-1) AlgX
T1 construct: gene algX; residues 27-474 (mature protein, SGNH hydrolase-like domain plus C-terminal CBM)
Description: direct ESI-MS binding assay on PaAlgX27–474

PaAlgJ79–379 = biological target: T2, PaAlgJ79–379 (Pseudomonas aeruginosa, UniProt Q51393); assay: direct ESI-MS binding assay; details: 50 mM ammonium acetate, pH 7, 298 K; only folded (low charge state) fraction used, its concentration not accurately known; read-out: Apparent K a (M^-1) AlgJ
T2 construct: gene algJ; soluble periplasmic domain 79-379 without TM helix 12-29; N-terminal His6 thrombin-cleaved; expressed in E. coli BL21-CodonPlus; monomer by SEC
Description: direct ESI-MS binding assay on PaAlgJ79–379

[1] = tested on: CC(=O)Oc1ccc2cc(C(=O)O)c(=O)oc2c1; assay: purified protein; details: up to 10% DMSO, kcat given as (×10^3 s^-1), kcat/Km implies ×10^-3, 25.0 °C
[2] = tested on: CC(=O)Oc1ccc2cc(C(=O)O)c(=O)oc2c1; assay: fluorescence acetylesterase assay; type: biochemical, Pseudomonas putida; details: 50 mM sodium HEPES pH 7.0, 298 K, up to 10% DMSO, kcat given as (×10^3 s^-1), kcat/Km implies ×10^-3, 25.0 °C
Description: fluorescence acetylesterase assay on PpAlgJ75–370

[3] = 50 mM sodium HEPES pH 7.0, 298 K
[4] = 50 mM sodium HEPES pH 8.0, 298 K

T2 sequence (Q51393 79-379): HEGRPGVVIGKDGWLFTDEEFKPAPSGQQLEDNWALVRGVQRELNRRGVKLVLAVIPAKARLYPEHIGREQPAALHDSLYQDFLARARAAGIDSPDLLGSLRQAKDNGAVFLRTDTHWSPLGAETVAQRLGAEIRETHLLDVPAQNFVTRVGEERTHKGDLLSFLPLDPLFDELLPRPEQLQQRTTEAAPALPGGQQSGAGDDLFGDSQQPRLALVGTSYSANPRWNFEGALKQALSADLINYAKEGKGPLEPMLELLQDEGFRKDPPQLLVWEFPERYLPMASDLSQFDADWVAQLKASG
T1 sequence (Q51372 27-474): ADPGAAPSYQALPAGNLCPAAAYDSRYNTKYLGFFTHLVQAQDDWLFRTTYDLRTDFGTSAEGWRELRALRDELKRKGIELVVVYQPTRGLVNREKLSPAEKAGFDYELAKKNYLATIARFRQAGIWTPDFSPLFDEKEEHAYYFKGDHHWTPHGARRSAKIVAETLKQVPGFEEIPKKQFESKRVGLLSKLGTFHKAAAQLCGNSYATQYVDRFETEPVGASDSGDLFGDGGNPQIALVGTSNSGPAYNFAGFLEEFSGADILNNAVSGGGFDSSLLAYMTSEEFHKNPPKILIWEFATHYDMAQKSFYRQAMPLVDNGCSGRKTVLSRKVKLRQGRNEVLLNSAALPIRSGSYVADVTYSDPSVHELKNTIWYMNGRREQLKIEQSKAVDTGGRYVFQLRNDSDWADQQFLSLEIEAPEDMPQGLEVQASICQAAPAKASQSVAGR

Row | Molecule | Kd (PaAlgX27–474) [µM] | Kd (PaAlgJ79–379) [µM] | also measured
1 | O=C(O)C1OC(OC2C(C(=O)O)OC(OC3C(C(=O)O)OC(OC4C(C(=O)O)OC(O)C(O)C4O)C(O)C3O)C(O)C2O)C(O)C(O)C1O (stereo not shown) [ManA4] | 1000 | > 2000 | 
2 | O=C(O)C1OC(OC2C(C(=O)O)OC(OC3C(C(=O)O)OC(OC4C(C(=O)O)OC(OC5C(C(=O)O)OC(O)C(O)C5O)C(O)C4O)C(O)C3O)C(O)C2O)C(O)C(O)C1O (stereo not shown) [ManA5] | 1000 | > 2000 | 
3 | CCCO[C@@H]1O[C@H](C(=O)O)[C@@H](O[C@@H]2O[C@H](C(=O)O)[C@@H](O[C@@H]3O[C@H](C(=O)O)[C@@H](O[C@@H]4O[C@H](C(=O)O)[C@@H](O[C@@H]5O[C@H](C(=O)O)[C@@H](O[C@@H]6O[C@H](C(=O)O)[C@@H](O)[C@H](O)[C@@H]6O)[C@H](O)[C@@H]5O)[C@H](O)[C@@H]4O)[C@H](O)[C@@H]3O)[C@H](O)[C@@H]2O)[C@H](O)[C@@H]1O [ManA6] | 312 | > 2000 | 
4 | ManA7 | 208 | > 2000 | 
5 | ManA8 | 172 |  | 
6 | ManA9 | 114 |  | 
7 | ManA10 | 100 |  | 
8 | ManA11 | 62.5 |  | 
9 | ManA12 | 52.6 |  | 
10 | PaAlgJ79–379 (Pseudomonas aeruginosa PAO1) |  |  | Km [1, 3]: 1160 ± 120 µM; kcat [1, 3]: 3.44±0.129 ×10^-3 s^-1; kcat/Km [1, 3]: 2.96 ± 0.324 M⁻¹ s⁻¹
11 | PaAlgX27–474 (Pseudomonas aeruginosa PAO1) |  |  | Km [1, 4]: 1100 ± 96 µM; kcat [1, 4]: 11.4±0.343 ×10^-3 s^-1; kcat/Km [1, 4]: 10.3 ± 0.961 M⁻¹ s⁻¹
12 | PpAlgJ75–370 (Pseudomonas putida KT2440) |  |  | Km [2]: 2300 ± 96.3 µM; kcat [2]: 7.80±0.155 ×10^-3 s^-1; kcat/Km [2]: 3.39 ± 0.0688 M⁻¹ s⁻¹
